# According to patent US12036262B2, “Edible plant-derived nanoparticles for regulation of gut microbiota” (University of Louisville Research Foundation, Inc., priority 2017, dated 2024):
# What was measured:
# SpaC = SpaC expression in LGG (qPCR, Western blotting); assay type: cell-based, Lactobacillus rhamnosus; settings: compared with scrambled miRNA
# Procedure: Quantitative Real-Time PCR for RNA Expression. The quantity of mature miRNAs was determined with quantitative real-time PCR (qPCR) using a miScript II RT kit (QIAGEN Inc., Germantown, Maryland, United States of America) and miScript SYBR Green PCR Kit (QIAGEN) with QIAGEN 3′ universal primers. For analysis of gene mRNA expression, 1 μg of total RNA was reverse transcribed using SuperScript III reverse transcriptase (Invitrogen, Waltham, Massachusetts, United States of America), and quantitation was performed using SsoAdvanced™ Universal SYBR Green Supermix (Bio-Rad Laboratories, Inc., Hercules, California, United States of America) and the listed primers (Table 1) with SsoAdvanced™ Universal SYBR Green Supermix (Bio-Rad). qPCR was performed using a Bio-Rad CFX96 qPCR System with each reaction run in triplicate. Analysis and fold-changes were determined using the comparative threshold cycle (Ct) method. Changes in miRNA or mRNA expression were calculated as fold-change.
# Western Blotting. LGG cells were treated as indicated in each individual Figure and harvested from 100-350 ml cultures by centrifugation at 5,000×g for 10 minutes. […] After the Alexa Fluor-647 (Invitrogen) conjugated secondary antibody incubation, the bands were visualized and analyzed using an Odyssey Imager (LI-COR, Lincoln, Nebraska, United States of America). […]
# [1] = test system: Lactobacillus rhamnosus GG (LGG); experiment: LGG proliferation in culture (OD600); assay type: cell-based; settings: compared with scrambled miRNA
# Procedure: Bacteria. Lactobacillus rhamnosus (LGG) was obtained from ATCC® (Catalog No. 53103). The SpaC-deleted LGG was cultured in Lysogeny broth (LB; ISC BioExpress, Kaysville, Utah, United States of America) at 37° C. Ruminococcaceae sp. (ATCC® Catalog No. TSD-27) was grown in GS2+cellobiose medium (Biddle et al., 2013). Listeria monocytogenes (Listeria; ATCC® Catalog No. 15313) and Bacteroides fragilis (Fragilis, NCTC 9343) were cultured in brain heart infusion (BHI) broth (Hardy Diagnostics, Santa Maria, California, United States of America) as described in Zhang & Wang, 2015 and Deng et al., 2015, respectively. LGG was grown in MRS broth media at 37° C. in anaerobic conditions for 14-16 hours to an OD600 of 0.8-1.0. Bacterial viability and concentration were checked by MRS agar platting. Cultures were centrifuged and the bacterial pellet was diluted in MRS for in vitro experiments and in PBS for gavaging at 10^9 CFU/mouse per day.
# LGG = experiment: Bacterial translocation to peripheral blood and liver; assay type: in vivo; settings: DSS-treated SPF and germ-free mice, compared with LGG alone
# Procedure: Bacterial Translocation. Bacterial translocation from the murine gut to peripheral blood and liver was determined at the indicated times presented in the relevant figures after oral bacterial administration. Fifty microliters of anticoagulant blood were cultured on MRS agar for 48 h at 37° C. in an anaerobic chamber. Liver tissue samples were homogenized in 0.5% Triton X-100/PBS, and 100 μl of the homogenates were cultured on MRS agar plates. After 48 hours of incubation, CFUs were counted, and the results are expressed as number of bacteria detected/mL of blood or gram of liver.
# MC-38 cells = experiment: Migration assay, intracellular LGG; assay type: cell-based, C57BL/6 murine
# Procedure: Cells. C57BL/6 murine colon adenocarcinoma MC-38 cells (gender unknown; Kerafast, Inc., Boston, Massachusetts, United States of America) or human epithelial colorectal adenocarcinoma Caco-2 cells (American Type Culture Collection, ATCC®, Manassas, Virginia, United States of America) were grown in tissue culture plates with Dulbecco's modified Eagle's medium (DMEM) supplemented with 10% heat-inactivated fetal bovine serum (FBS), 100 U/mL penicillin, and 100 μg/mL streptomycin at 37° C. in a 5% CO2 atmosphere.
# Migration Assays. MC-38 or Caco-2 cells (ATCC) were seeded at 1×10^5 cells per well in a 12-well tissue culture plate with Dulbecco's modified Eagle's medium (DMEM) without antibiotics. The cells were inoculated with 1×10^7 bacteria per well for 90 minutes at 37° C. in a 5% CO2 atmosphere to allow bacterial adhesion and entry. The number of intracellular bacteria was quantified as described in Zhang & Wang, 1998.
substance,measurement,setting,value
"ath-miR167a: GELN miRNA, SEQ ID NO: 9 (UGAAGCUGCCAGCAUGAUCUA; expressed or natural sequence)",SpaC expression in LGG,SpaC,significantly down-regulated
same,growth of SpaC^del LGG,[1],no effect
same,LGG migration into bloodstream and liver,LGG,significantly reduced LGG translocation into the peripheral blood
same,LGG entry into MC38 cells,MC-38 cells,could prevent the entry of LGG into gut epithelial cells
